Test results: ChEMBL document CHEMBL3784961, “Kinetics and metabolism of paracetamol and phenacetin” (Br J Clin Pharmacol, 1980)

Assays:
[1] = system: Homo sapiens; experiment: Renal clearance in healthy human assessed as paracetamol sulfate level at 20 mg/kg; type: ADME, organism-based, Kidney; details: in vivo
[2] = system: Homo sapiens; experiment: Renal clearance in healthy human assessed as paracetamol glucuronide level at 20 mg/kg; type: ADME, organism-based, Kidney; details: in vivo
[3] = system: Homo sapiens; experiment: Drug recovery in poisoned human patient (8 patients) with severe liver damage receiving NAC treatment assessed as mercapturate plus cysteine conjugate level at 20 mg/kg, po; type: ADME, organism-based; details: in vivo
[4] = system: Homo sapiens; experiment: Drug recovery in poisoned human patient (8 patients) with severe liver damage receiving supportive treatment assessed as sulphate conjugate level at 20 mg/kg, po; type: ADME, organism-based; details: in vivo
[5] = system: Homo sapiens; experiment: Drug recovery in poisoned human patient (23 patients) without liver damage receiving NAC treatment assessed as mercapturate plus cysteine conjugate level at 20 mg/kg, po; type: ADME, organism-based; details: in vivo
[6] = Systemic availability in human; type: ADME, organism-based; details: in vivo
[7] = Volume of distribution at central compartment in healthy adult male human subject at 12 mg/kg, iv; details: in vivo
[8] = system: Homo sapiens; experiment: Drug recovery in poisoned human patient (3 patients) with severe liver damage receiving methionine treatment assessed as glucuronide conjugate level at 20 mg/kg, po; type: ADME, organism-based; details: in vivo
[9] = Volume of distribution in 70 kg adult human at 12 mg/kg, iv infused over 2 mins; details: in vivo
[10] = system: Homo sapiens; experiment: Drug recovery in poisoned human patient (9 patients) without liver damage receiving supportive treatment assessed as glucuronide conjugate level at 20 mg/kg, po; type: ADME, organism-based; details: in vivo
[11] = system: Homo sapiens; experiment: Drug recovery in poisoned human patient (9 patients) without liver damage receiving supportive treatment assessed as sulphate conjugate level at 20 mg/kg, po; type: ADME, organism-based; details: in vivo
[12] = Drug excretion in urine of healthy young adult human assessed as glucuronide conjugate level after 24 hrs; type: ADME; details: in vivo
[13] = system: Homo sapiens; experiment: Drug recovery in poisoned human patient (8 patients) with severe liver damage receiving supportive treatment assessed as mercapturate plus cysteine conjugate level at 20 mg/kg, po; type: ADME, organism-based; details: in vivo
[14] = system: Homo sapiens; experiment: Drug recovery in poisoned human patient (23 patients) without liver damage receiving NAC treatment assessed as sulphate conjugate level at 20 mg/kg, po; type: ADME, organism-based; details: in vivo
[15] = system: Homo sapiens; experiment: Drug recovery in poisoned human patient (3 patients) with severe liver damage receiving methionine treatment assessed as sulphate conjugate level at 20 mg/kg, po; type: ADME, organism-based; details: in vivo
[16] = system: Homo sapiens; experiment: Drug recovery in poisoned human patient (9 patients) without liver damage receiving supportive treatment assessed as mercapturate plus cysteine conjugate level at 20 mg/kg, po; type: ADME, organism-based; details: in vivo
[17] = system: Homo sapiens; experiment: Mean drug recovery in poisoned human patient (23 patients) without liver damage receiving NAC treatment at 20 mg/kg, po; type: ADME, organism-based; details: in vivo
[18] = system: Homo sapiens; experiment: Drug recovery in healthy human subjects (8 subjects) assessed as sulphate conjugate level at 20 mg/kg, po; type: ADME, organism-based; details: in vivo
[19] = system: Homo sapiens; experiment: Drug recovery in poisoned human patient (15 patients) without liver damage receiving cysteamine treatment assessed as mercapturate plus cysteine conjugate level at 20 mg/kg, po; type: ADME, organism-based; details: in vivo
[20] = system: Homo sapiens; experiment: Drug recovery in poisoned human patient (8 patients) without liver damage receiving methionine treatment assessed as glucuronide conjugate level at 20 mg/kg, po; type: ADME, organism-based; details: in vivo
[21] = system: Homo sapiens; experiment: Mean drug recovery in poisoned human patient (8 patients) with severe liver damage receiving NAC treatment at 20 mg/kg, po; type: ADME, organism-based; details: in vivo
[22] = system: Homo sapiens; experiment: Mean drug recovery in poisoned human patient (8 patients) without liver damage receiving methionine treatment at 20 mg/kg, po; type: ADME, organism-based; details: in vivo
[23] = system: Homo sapiens; experiment: Drug recovery in poisoned human patient (15 patients) without liver damage receiving cysteamine treatment assessed as glucuronide conjugate level at 20 mg/kg, po; type: ADME, organism-based; details: in vivo
[24] = system: Homo sapiens; experiment: Drug recovery in poisoned human patient (15 patients) without liver damage receiving cysteamine treatment assessed as sulphate conjugate level at 20 mg/kg, po; type: ADME, organism-based; details: in vivo
[25] = Elimination half life in healthy adult male human subject at 12 mg/kg, iv; type: ADME, organism-based; details: in vivo, read-out: beta t1/2 (converted)
[26] = system: Homo sapiens; experiment: Mean drug recovery in poisoned human patient (15 patients) without liver damage receiving cysteamine treatment at 20 mg/kg, po; type: ADME, organism-based; details: in vivo
[27] = system: Homo sapiens; experiment: Mean drug recovery in poisoned human patient (8 patients) with severe liver damage receiving supportive treatment at 20 mg/kg, po; type: ADME, organism-based; details: in vivo
[28] = Drug excretion in urine of human at 20 mg/kg assessed as mercapturic conjugate level after 24 hrs; type: ADME, organism-based; details: in vivo
[29] = system: Homo sapiens; experiment: Drug recovery in poisoned human patient (8 patients) with severe liver damage receiving NAC treatment assessed as sulphate conjugate level at 20 mg/kg, po; type: ADME, organism-based; details: in vivo
[30] = Systemic availability in healthy adult male human subject at 12 mg/kg, po; type: ADME, organism-based; details: in vivo
[31] = Half life in healthy young adult human; type: ADME, organism-based; details: in vivo
[32] = system: Homo sapiens; experiment: Mean drug recovery in poisoned human patient (3 patients) with severe liver damage receiving methionine treatment at 20 mg/kg, po; type: ADME, organism-based; details: in vivo
[33] = system: Homo sapiens; experiment: Drug recovery in healthy human subjects (8 subjects) assessed as mercapturate plus cysteine conjugate level at 20 mg/kg, po; type: ADME, organism-based; details: in vivo
[34] = system: Homo sapiens; experiment: Drug recovery in poisoned human patient (8 patients) with severe liver damage receiving NAC treatment assessed as glucuronide conjugate level at 20 mg/kg, po; type: ADME, organism-based; details: in vivo
[35] = Half life in elderly human; type: ADME, organism-based; details: in vivo
[36] = Elimination half life in healthy adult male human subject at 12 mg/kg, po; type: ADME, organism-based; details: in vivo, read-out: beta t1/2 (converted)
[37] = system: Homo sapiens; experiment: Drug recovery in poisoned human patient (8 patients) without liver damage receiving methionine treatment assessed as sulphate conjugate level at 20 mg/kg, po; type: ADME, organism-based; details: in vivo
[38] = system: Homo sapiens; experiment: Drug recovery in poisoned human patient (3 patients) with severe liver damage receiving methionine treatment assessed as mercapturate plus cysteine conjugate level at 20 mg/kg, po; type: ADME, organism-based; details: in vivo
[39] = system: Homo sapiens; experiment: Mean drug recovery in poisoned human patient (9 patients) without liver damage receiving supportive treatment at 20 mg/kg, po; type: ADME, organism-based; details: in vivo
[40] = Drug excretion in human urine assessed as unchanged parent compound level; type: ADME; details: read-out: Drug excretion
[41] = system: Homo sapiens; experiment: Drug recovery in poisoned human patient (8 patients) without liver damage receiving methionine treatment assessed as mercapturate plus cysteine conjugate level at 20 mg/kg, po; type: ADME, organism-based; details: in vivo
[42] = system: Homo sapiens; experiment: Drug recovery in poisoned human patient (23 patients) without liver damage receiving NAC treatment assessed as glucuronide conjugate level at 20 mg/kg, po; type: ADME, organism-based; details: in vivo
[43] = system: Homo sapiens; experiment: Drug recovery in healthy human subjects (8 subjects) assessed as glucuronide conjugate level at 20 mg/kg, po; type: ADME, organism-based; details: in vivo
[44] = system: Homo sapiens; experiment: Drug recovery in poisoned human patient (8 patients) with severe liver damage receiving supportive treatment assessed as glucuronide conjugate level at 20 mg/kg, po; type: ADME, organism-based; details: in vivo
[45] = system: Homo sapiens; experiment: Distribution half life in healthy adult male human subject at 12 mg/kg, iv; type: ADME, organism-based; details: in vivo
[46] = Volume of distribution at central and peripheral compartment in healthy adult male human subject at 12 mg/kg, iv; details: in vivo
[47] = Drug excretion in urine of healthy young adult human assessed as unchanged parent drug level after 24 hrs; type: ADME; details: read-out: Drug excretion
[48] = Apparent volume of distribution in human; details: in vivo
[49] = Drug excretion in urine of healthy young adult human assessed as sulphate conjugate level after 24 hrs; type: ADME; details: in vivo
[50] = Half life in human; type: ADME, organism-based; details: in vivo

CC(=O)Nc1ccc(OS(=O)(=O)O)cc1
CL [1]: 166 mL/min

CC(=O)Nc1ccc(O[C@@H]2O[C@H](C(=O)O)[C@@H](O)[C@H](O)[C@H]2O)cc1 [ACETAMINOPHEN GLUCURONIDE]
CL [2]: 130 mL/min

CC(=O)Nc1ccc(O)cc1 [ACETAMINOPHEN]
Drug recovery [3]: 16.5%
Drug recovery [4]: 9.7%
Drug recovery [5]: 10.6%
bioavailability [6]: 75%
Vd [7]: 0.509 L/kg
Drug recovery [8]: 68.9%
Vd at 2 min [9]: 65 L
Drug recovery [10]: 75.3%
Drug recovery [11]: 9.3%
Drug excretion [12]: 55%
Drug recovery [13]: 15.2%
Drug recovery [14]: 14.5%
Drug recovery [15]: 9.1%
Drug recovery [16]: 6.9%
Drug recovery [17]: 13.4 g
Drug recovery [18]: 32.3%
Drug recovery [19]: 6.4%
Drug recovery [20]: 73.9%
Drug recovery [21]: 13 g
Drug recovery [22]: 14.5 g
Drug recovery [23]: 72.4%
Drug recovery [24]: 11.9%
half-life [25]: 1.98 h
Drug recovery [26]: 14.5 g
Drug recovery [27]: 11.8 g
Drug excretion [28]: 4%
Drug recovery [29]: 13.3%
bioavailability [30]: 76%
half-life [31]: 2 h
Drug recovery [32]: 13.7 g
Drug recovery [33]: 8%
Drug recovery [34]: 60.9%
half-life [35]: 2.17 h
half-life [36]: 1.97 h
Drug recovery [37]: 10.1%
Drug recovery [38]: 13.8%
Drug recovery [39]: 10.3 g
dose excreted [40]: 2%
Drug recovery [41]: 8.1%
Drug recovery [42]: 63.6%
Drug recovery [43]: 54.7%
Drug recovery [44]: 66.5%
alphat1/2 [45]: 0.13 h
Vd [46]: 0.897 L/kg
dose excreted at 24 h [47]: 4%
Vd [48]: 0.9 L/kg
Drug excretion [49]: 30%

CCOc1ccc(NC(C)=O)cc1 [PHENACETIN]
dose excreted [40]: < 0.5%
half-life [50]: 1 h
